According to patent publication US6617127B2, “Synthesis and recovery of aspartame involving enzymatic deformylation step” (Holland Sweetener Company, V.O.F., priority 1998, dated 2003):
Residues, ends and D or L forms follow the SMILES beside them. *: point of attachment. For = O=C*

What was measured:
[1] = target: T1, EC 3.5.1.27 PDF (Fe^2+) enzyme (Escherichia coli, UniProt P0A6K3); experiment: Deformylation reactions with PDF (Fe^2+), free amino compound determined by TNBS; assay type: biochemical, E. coli; conditions: for yield (%) of deformylated product: 100 mM substrate, 0.2 mM PDF (Fe^2+), MES/KOH pH 6.2, 250 mM KCl, 37° C., after 10 hours; for inhibition of the PDF in the deformylation of F-α-AP and F-α-APM: presence of the β-form
T1 construct: made in house; host or cells: E. coli (overproducing cells)
T1 sequence (P0A6K3 1-169): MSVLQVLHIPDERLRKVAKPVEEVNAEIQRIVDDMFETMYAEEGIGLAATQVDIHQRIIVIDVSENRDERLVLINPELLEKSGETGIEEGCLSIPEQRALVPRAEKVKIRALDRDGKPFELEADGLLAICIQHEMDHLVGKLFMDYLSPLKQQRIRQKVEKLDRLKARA
Procedure: An EC 3.5.1.27 PDF (Fe^2+) enzyme was isolated from overproducing E. coli cells grown at 30° C. in 1.6 l TB medium for 14-16 hours. […] After washing with 120 ml of 20 mM Hepes/KOH, 100 mM KF, 0.2 mM TCEP, pH 7.7, the PDF (Fe^2+) was eluted with 150 ml 20 mM Hepes/KOH, 100 mM KCl, 0.2 mM TCEP, pH 7.7. […] After adjustment of the TCEP concentration to 1 mM and protein concentration to 40 mg/ml PDF (Fe^2+) was stored frozen at −60° C.
Compounds (100 mM) as indicated in Table 2 for each separate Example were incubated in the presence of 100 mM aqueous 2-(N-morpholino)-ethanesulphonic acid (MES)/KOH buffer pH=6.2 and 250 mM KCl at 37° C. […] Following a brief centrifugation, the amount of deformylated compounds in the supernatant was determined by trinitrobenzene sulphonic acid (TNBS) according to the method of Fields (Methods in Enzymology, 25, 464-468 (1972)), using ε420=21.2 mM^−1 cm^−1. The amount of (deformylated) compound each time was corrected for the intrinsic amount of free amino compound which was detected without incubation with the PDF.
The product yields indicated are the yields after 10 hours of reaction time.
In addition, the catalytic properties of the PDF in the deformylation reactions of F-α-AP and F-α-APM (in particular the initial reaction rates for deformylation in resp. 1 hour for F-α-APM and 3 hours for F-α-AP) were determined by performing the reactions of Examples 1 and 2 at various substrate concentrations from 2-140 mM. In particular, the following catalytic properties of the enzyme were determined: […]

[2] = system: immobilized penicillin-acylase; experiment: Comparative Example D: deformylation of F-α-APM with penicillin-acylase, TLC; assay type: biochemical; conditions: 1 g F-α-APM in 25 ml, 0.2 g enzyme preparation, pH 6,5, 37° C., 48 hours
Procedure: 1 g of F-α-APM was dissolved in 25 ml of distilled water and the pH was adjusted to 6,5 by the addition of 0.1 M aqueous NaOH. Then, 0.2 g of an immobilized penicillin-acylase preparation was added. The reaction mixture was allowed to stand for 48 hours at 37° C. At regular time intervals during the reaction, samples were taken and analyzed by thin layer chromatography using α-APM as a reference substance.

penicillin-acylase = conditions: after 36 hours, 50 U of enzyme and 2 g of F-α-APM; cited from earlier work
[3] = Activity assay of isolated PDF (Fe^2+); assay type: biochemical; conditions: 5 mM formylmethionyl-alanine, 30° C., pH=7.2
Procedure: An EC 3.5.1.27 PDF (Fe^2+) enzyme was isolated from overproducing E. coli cells grown at 30° C. in 1.6 l TB medium for 14-16 hours. About 13 g (wet weight) of cell paste were suspended in 26 ml buffer (20 mM Hepes/KOH, 100 mM KF, pH 7.7 supplemented with 10 μg/ml catalase from bovine liver (Boehringer Mannheim) and 1 mM AEBSF, disintegrated by sonification (Branson B12, 20 min) at 0° C. and centrifuged at 200.000 g for 1 hour. The clear supernatant (1.3 g of protein; according to biurete reaction) was mixed with 1.3 ml 10% (w/v) Polymin G-35 (BASF) adjusted to pH 7.7 and centrifuged at 40.000 g for 10 minutes. The supernatant was applied to a 20 ml Met-Lys-Sepharose column that had been equilibrated with 20 mM Hepes/KOH, 100 mM KF, 0.2 mM TCEP, pH 7.7. After washing with 120 ml of 20 mM Hepes/KOH, 100 mM KF, 0.2 mM TCEP, pH 7.7, the PDF (Fe^2+) was eluted with 150 ml 20 mM Hepes/KOH, 100 mM KCl, 0.2 mM TCEP, pH 7.7. The protein containing fractions were concentrated by ultrafiltration using an Amicon PM10 membrane (yield: 140 mg protein, having an activity of 800 IU/mg; assay conditions: 5 mM formylmethionyl-alanine, 30° C., pH=7.2). After adjustment of the TCEP concentration to 1 mM and protein concentration to 40 mg/ml PDF (Fe^2+) was stored frozen at −60° C.

[4] = substrate: O=CN[C@@H](CC(=O)O)C(=O)N[C@@H](Cc1ccccc1)C(=O)O; experiment: Deformylation reactions with PDF (Fe^2+), free amino compound determined by TNBS; assay type: biochemical, E. coli; conditions: other: substrate concentrations 2-140 mM, initial reaction rates
[5] = substrate: COC(=O)[C@H](Cc1ccccc1)NC(=O)[C@H](CC(=O)O)NC=O; experiment: as above; assay type: biochemical, E. coli; conditions: other: substrate concentrations 2-140 mM, initial reaction rates
[6] = substrate: O=CN[C@@H](CC(=O)N[C@@H](Cc1ccccc1)C(=O)O)C(=O)O; experiment: as above; assay type: biochemical, E. coli; conditions: other: PDF (Fe^2+), pH 6.2, 37° C.
[7] = substrate: COC(=O)[C@H](Cc1ccccc1)NC(=O)C[C@H](NC=O)C(=O)O; experiment: as above; assay type: biochemical, E. coli; conditions: other: PDF (Fe^2+), pH 6.2, 37° C.

O=CN[C@@H](CC(=O)O)C(=O)O [F-Asp, N-formyl-L-aspartic acid]
yield (%) of deformylated product [1]: 0.5%

O=CN[C@@H](CC(=O)O)C(=O)N[C@@H](Cc1ccccc1)C(=O)O [F-α-AP, N-formyl-α-L-aspartyl-L-phenylalanine] (For-Asp-Phe-OH)
yield (%) of deformylated product [1]: 21.6%

COC(=O)[C@H](Cc1ccccc1)NC(=O)[C@H](CC(=O)O)NC=O [F-α-APM, N-formyl-α-L-aspartyl-L-phenylalanine methyl ester] (For-Asp-Phe-OMe)
formation of α-APM from F-α-APM [2]: In none of the samples taken, formation of α-APM from F-α-APM could be demonstrated
yield (%) of deformylated product [1]: 44.2%
yield of deformylation (penicillin-acylase): 20%

O=CN[C@@H](CC(=O)N[C@@H](Cc1ccccc1)C(=O)O)C(=O)O [F-β-AP, N-formyl-β-L-aspartyl-L-phenylalanine]
yield (%) of deformylated product [1]: 1.1%
inhibition of the PDF in the deformylation of F-α-AP and F-α-APM [1]: does not give any inhibition

COC(=O)[C@H](Cc1ccccc1)NC(=O)C[C@H](NC=O)C(=O)O [F-β-APM, N-formyl-β-L-aspartyl-L-phenylalanine methyl ester]
yield (%) of deformylated product [1]: 0.2%
inhibition of the PDF in the deformylation of F-α-AP and F-α-APM [1]: does not give any inhibition

B1: PDF (Fe^2+): EC 3.5.1.27 formylmethionyl peptide deformylase with Fe^2+ co-factor, isolated from overproducing E. coli cells (protein, UniProt P0A6K3 2-169, looked up)
Peptide deformylase: SVLQVLHIPDERLRKVAKPVEEVNAEIQRIVDDMFETMYAEEGIGLAATQVDIHQRIIVIDVSENRDERLVLINPELLEKSGETGIEEGCLSIPEQRALVPRAEKVKIRALDRDGKPFELEADGLLAICIQHEMDHLVGKLFMDYLSPLKQQRIRQKVEKLDRLKARA
modifications: Fe2+ cofactor
notes: EC 3.5.1.27 formylmethionyl peptide deformylase with Fe^2+ co-factor, isolated from overproducing E. coli cells
activity of the enzyme [3]: 800 IU/mg

B2: EC 3.5.1.27 PDF (Fe^2+) enzyme (Escherichia coli K-12) (protein)
chain: T1 sequence (P0A6K3 1-169)
notes: made in house; host or cells: E. coli (overproducing cells)
Km [4]: 12.3 mM
kcat [4]: 0.00333 s⁻¹
kcat/Km [4]: 0.27 M⁻¹ s⁻¹
Km [5]: 25.3 mM
kcat [5]: 0.0117 s⁻¹
kcat/Km [5]: 0.46 M⁻¹ s⁻¹
kcat/Km [6]: < 0.0001 M⁻¹ s⁻¹
kcat/Km [7]: < 0.0001 M⁻¹ s⁻¹
